Experimental findings from ChEMBL document CHEMBL3232733, “Design, synthesis, crystallographic studies, and preliminary biological appraisal of new substituted triazolo[4,3-b]pyridazin-8-amine derivatives as tankyrase inhibitors” (J Med Chem, 2014) are described below.

For orientation: inhibition means the change of the read-out against control, counted positive when it falls. Usually IC50 stands for the concentration needed to halve the response being measured.

Calls of active or inactive are those of the source. No cut-off for these calls is given here.

The test system of one test is DLD-1. Description: Cytotoxicity against human DLD1 cells assessed as growth inhibition at 1 to 20 uM measured on day 10 by crystal violet staining. Format: functional, cell-based.
In test [1] the target is T1, Protein mono-ADP-ribosyltransferase PARP10 (Homo sapiens) (UniProt Q53GL7).
T1 sequence (whole entry): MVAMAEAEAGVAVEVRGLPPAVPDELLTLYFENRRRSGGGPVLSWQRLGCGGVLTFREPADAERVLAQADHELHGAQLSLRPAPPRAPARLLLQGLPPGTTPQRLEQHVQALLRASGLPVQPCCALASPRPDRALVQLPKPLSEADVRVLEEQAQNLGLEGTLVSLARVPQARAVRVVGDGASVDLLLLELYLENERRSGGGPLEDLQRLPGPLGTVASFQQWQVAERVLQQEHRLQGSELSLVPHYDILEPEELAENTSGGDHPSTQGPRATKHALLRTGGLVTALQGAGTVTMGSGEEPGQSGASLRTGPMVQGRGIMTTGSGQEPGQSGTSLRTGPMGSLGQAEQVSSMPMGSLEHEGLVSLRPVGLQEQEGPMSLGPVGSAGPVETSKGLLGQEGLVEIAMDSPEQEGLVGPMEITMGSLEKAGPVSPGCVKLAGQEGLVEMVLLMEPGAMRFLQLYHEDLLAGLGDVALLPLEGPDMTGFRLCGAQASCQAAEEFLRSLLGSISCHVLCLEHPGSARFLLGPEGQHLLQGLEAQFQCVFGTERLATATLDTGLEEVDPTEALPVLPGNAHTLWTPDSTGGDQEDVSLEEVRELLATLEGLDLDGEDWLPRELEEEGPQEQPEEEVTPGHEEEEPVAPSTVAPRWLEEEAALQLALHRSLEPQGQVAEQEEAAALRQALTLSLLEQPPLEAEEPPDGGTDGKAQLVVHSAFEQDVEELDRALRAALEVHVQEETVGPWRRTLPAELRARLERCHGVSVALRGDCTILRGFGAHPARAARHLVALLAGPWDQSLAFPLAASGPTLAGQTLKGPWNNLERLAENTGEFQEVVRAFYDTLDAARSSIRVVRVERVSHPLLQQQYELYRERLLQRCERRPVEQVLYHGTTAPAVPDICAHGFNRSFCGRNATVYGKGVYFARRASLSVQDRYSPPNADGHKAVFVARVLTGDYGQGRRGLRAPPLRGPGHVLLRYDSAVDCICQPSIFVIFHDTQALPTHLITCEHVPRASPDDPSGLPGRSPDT
Conditions: 10 uM.
Description: Inhibition of recombinant human PARP-10 at 10 uM relative to control

In test [2] the target is Poly [ADP-ribose] polymerase 1 (Homo sapiens, UniProt P09874). Description: Inhibition of recombinant human PARP-1.
Chain of Poly [ADP-ribose] polymerase 1 (P09874 whole entry): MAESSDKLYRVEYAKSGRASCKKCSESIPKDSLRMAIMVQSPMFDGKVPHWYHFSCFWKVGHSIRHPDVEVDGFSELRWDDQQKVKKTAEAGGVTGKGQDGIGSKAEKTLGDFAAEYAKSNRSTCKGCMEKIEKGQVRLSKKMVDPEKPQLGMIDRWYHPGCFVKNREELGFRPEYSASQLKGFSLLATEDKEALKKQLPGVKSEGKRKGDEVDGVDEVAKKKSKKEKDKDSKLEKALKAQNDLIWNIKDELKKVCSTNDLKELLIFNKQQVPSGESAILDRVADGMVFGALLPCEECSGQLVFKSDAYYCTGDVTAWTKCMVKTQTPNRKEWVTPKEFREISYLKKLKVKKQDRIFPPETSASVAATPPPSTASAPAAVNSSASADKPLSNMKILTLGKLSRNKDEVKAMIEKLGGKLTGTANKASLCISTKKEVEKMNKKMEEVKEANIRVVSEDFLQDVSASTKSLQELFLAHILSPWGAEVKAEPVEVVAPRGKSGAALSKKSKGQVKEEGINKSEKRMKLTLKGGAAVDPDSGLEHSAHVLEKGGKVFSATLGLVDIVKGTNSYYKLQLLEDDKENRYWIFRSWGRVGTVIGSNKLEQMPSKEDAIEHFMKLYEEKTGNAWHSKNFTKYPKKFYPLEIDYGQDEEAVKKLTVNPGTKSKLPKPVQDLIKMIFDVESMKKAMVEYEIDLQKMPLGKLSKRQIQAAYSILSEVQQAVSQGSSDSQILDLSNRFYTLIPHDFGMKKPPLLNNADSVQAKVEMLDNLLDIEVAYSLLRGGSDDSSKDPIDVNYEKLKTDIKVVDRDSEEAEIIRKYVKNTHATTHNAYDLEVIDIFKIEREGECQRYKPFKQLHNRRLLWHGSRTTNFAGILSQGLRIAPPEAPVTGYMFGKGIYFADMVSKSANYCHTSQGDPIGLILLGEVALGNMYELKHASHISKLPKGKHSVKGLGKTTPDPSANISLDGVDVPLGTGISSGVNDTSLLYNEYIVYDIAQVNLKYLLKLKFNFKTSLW
Test [3] has as its target Poly [ADP-ribose] polymerase 2 (Homo sapiens, UniProt Q9UGN5). Description: Inhibition of recombinant human PARP-2.
Test [4] addresses T2, Protein mono-ADP-ribosyltransferase PARP3 (Homo sapiens) (UniProt Q9Y6F1).
T2 sequence (whole entry): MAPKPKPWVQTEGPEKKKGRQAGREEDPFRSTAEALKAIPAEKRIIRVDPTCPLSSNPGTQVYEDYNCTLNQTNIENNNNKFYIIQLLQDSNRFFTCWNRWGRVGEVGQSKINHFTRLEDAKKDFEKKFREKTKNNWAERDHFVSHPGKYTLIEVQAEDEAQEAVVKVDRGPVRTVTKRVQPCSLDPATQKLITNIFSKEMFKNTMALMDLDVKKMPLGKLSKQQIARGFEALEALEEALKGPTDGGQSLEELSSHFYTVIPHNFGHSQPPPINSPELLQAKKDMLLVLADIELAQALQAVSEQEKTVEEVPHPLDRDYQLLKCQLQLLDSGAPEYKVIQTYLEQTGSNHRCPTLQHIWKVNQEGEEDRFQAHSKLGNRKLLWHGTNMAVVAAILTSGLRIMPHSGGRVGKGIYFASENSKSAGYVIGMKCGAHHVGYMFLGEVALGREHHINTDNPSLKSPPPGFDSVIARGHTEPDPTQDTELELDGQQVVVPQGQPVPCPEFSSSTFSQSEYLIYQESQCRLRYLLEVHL
Conditions: 10 uM.
Description: Inhibition of recombinant human PARP-3 at 10 uM relative to control

For test [5], the target named is Protein mono-ADP-ribosyltransferase PARP6 (Homo sapiens) (UniProt Q2NL67). To be noted: 10 uM.
Chain of Protein mono-ADP-ribosyltransferase PARP6 (Homo sapiens) (Q2NL67 whole entry): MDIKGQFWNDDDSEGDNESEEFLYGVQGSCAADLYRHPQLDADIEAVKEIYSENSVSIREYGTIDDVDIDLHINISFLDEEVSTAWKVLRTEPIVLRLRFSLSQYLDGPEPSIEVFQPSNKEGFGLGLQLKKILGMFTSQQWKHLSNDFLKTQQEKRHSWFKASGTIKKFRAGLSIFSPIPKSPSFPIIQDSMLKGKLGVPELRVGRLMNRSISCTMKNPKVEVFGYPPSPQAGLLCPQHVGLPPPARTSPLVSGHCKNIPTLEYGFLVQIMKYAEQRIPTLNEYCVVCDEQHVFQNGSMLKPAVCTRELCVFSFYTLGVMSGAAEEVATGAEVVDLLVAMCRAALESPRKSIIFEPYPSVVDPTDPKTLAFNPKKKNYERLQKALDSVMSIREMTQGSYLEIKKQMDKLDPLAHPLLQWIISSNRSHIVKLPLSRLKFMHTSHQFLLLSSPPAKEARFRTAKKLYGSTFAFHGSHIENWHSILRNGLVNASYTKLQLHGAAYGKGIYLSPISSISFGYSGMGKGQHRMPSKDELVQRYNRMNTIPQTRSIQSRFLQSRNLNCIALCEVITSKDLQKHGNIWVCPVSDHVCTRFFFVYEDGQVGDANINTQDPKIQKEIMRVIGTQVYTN
Description: Inhibition of recombinant human PARP-6 at 10 uM relative to control
Test [6] deals with T3, Protein mono-ADP-ribosyltransferase TIPARP (Homo sapiens) (UniProt Q7Z3E1).
T3 sequence (whole entry): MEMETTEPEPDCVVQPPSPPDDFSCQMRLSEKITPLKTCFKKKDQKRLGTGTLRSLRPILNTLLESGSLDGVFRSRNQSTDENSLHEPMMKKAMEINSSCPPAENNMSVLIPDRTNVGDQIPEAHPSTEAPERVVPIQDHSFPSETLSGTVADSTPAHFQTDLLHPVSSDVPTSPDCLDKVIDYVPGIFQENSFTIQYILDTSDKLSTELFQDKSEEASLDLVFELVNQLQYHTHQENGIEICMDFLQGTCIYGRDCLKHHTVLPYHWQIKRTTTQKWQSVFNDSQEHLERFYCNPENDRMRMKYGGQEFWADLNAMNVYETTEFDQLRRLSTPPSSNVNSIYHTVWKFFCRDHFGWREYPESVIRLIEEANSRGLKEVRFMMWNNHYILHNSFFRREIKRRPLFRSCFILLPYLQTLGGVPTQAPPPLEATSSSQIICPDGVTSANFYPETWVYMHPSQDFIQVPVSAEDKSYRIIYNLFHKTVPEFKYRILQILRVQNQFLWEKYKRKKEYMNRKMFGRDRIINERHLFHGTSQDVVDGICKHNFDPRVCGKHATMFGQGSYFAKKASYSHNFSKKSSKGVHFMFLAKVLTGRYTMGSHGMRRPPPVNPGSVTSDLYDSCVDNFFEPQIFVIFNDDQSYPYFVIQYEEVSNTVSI
Conditions: 10 uM.
Description: Inhibition of recombinant human PARP-7 at 10 uM relative to control

Test [7] deals with T4, Protein mono-ADP-ribosyltransferase PARP8 (Homo sapiens) (UniProt Q8N3A8).
T4 sequence (whole entry): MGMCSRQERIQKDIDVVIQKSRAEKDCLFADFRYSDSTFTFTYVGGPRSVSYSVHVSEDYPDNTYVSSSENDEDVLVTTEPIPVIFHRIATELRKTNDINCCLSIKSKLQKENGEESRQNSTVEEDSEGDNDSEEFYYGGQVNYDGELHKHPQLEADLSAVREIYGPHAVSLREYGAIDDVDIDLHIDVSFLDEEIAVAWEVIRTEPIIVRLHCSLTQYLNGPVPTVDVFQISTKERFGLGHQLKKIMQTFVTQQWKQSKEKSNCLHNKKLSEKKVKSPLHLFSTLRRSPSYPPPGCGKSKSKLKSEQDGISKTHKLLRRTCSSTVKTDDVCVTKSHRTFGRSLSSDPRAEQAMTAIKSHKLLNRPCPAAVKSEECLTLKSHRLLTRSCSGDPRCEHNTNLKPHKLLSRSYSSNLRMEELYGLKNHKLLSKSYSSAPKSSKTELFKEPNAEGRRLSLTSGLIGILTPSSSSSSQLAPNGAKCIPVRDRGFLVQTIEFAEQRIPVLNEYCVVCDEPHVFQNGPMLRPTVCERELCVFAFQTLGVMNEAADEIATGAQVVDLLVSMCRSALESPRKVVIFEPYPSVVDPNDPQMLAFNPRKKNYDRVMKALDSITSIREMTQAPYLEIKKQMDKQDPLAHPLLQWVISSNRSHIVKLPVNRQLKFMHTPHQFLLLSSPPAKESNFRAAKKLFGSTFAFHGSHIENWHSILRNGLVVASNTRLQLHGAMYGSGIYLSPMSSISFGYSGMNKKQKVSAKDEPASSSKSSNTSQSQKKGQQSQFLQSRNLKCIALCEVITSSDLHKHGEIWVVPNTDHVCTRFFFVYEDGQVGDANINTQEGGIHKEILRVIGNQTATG
To be noted: 10 uM.
Description: Inhibition of recombinant human PARP-8 at 10 uM relative to control

Chain of Poly [ADP-ribose] polymerase 2 (Q9UGN5 whole entry): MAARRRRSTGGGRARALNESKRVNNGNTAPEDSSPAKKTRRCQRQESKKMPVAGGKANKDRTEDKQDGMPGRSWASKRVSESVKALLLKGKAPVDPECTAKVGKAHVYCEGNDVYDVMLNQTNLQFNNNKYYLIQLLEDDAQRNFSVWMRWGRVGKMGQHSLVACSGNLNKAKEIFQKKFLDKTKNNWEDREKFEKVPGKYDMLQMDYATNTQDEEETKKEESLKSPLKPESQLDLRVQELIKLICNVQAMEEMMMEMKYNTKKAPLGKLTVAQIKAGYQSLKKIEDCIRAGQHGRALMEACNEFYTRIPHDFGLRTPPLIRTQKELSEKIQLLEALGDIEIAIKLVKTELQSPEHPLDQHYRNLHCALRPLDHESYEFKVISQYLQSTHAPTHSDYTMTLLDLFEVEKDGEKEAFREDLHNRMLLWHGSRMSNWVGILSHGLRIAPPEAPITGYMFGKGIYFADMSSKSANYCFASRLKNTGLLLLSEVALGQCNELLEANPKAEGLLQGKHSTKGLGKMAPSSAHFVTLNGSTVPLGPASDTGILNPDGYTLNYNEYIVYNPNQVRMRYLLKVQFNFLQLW

On to `Oc1nc(-c2ccc(C(F)(F)F)cc2)nc2c1CSCC2`, for which, in the test on DLD-1, the “growth inhibition (GI)” value is “Active”.

On to `O=C(c1cc(Cc2n[nH]c(=O)c3ccccc23)ccc1F)N1CCN(C(=O)C2CC2)CC1`, for which the inhibition in test [1] is > 70%.

Turning to `Cc1cc(NCCc2ccc(O)cc2)c2nncn2n1`, the IC50 in test [2] and in test [3] was > 10 µM in each case. The “growth inhibition (GI)” value with DLD-1 was “Active”. Moreover, the inhibition entry in test [4], in test [5], in test [6], in test [7] and in test [1] was “inactive” throughout.

As for `O=C(Nc1cccc2cccnc12)c1ccc(N2C(=O)[C@@H]3[C@H](C2=O)[C@@H]2C=C[C@H]3C2)cc1`, in the test on DLD-1, the “growth inhibition (GI)” value was “Active”.
